Results: ChEMBL document CHEMBL1201862, “PubChem BioAssay data set” (2004)
Activity calls are given as the source filed them.

How the values were obtained:
[1] = Counterscreen for inhibitors of Trypanosoma brucei methionyl tRNA synthetase (MetRS): Luminescence-based cell-based high throughput dose response assay to identify compounds that are cytotoxic to Jurkat human T lymphocyte cells.; type: functional
[2] = biological target: T1, Methionyl-tRNA synthetase, putative (Trypanosoma brucei brucei, UniProt Q38C91); type: functional, Trypanosoma brucei brucei strain 927/4 GUTat10.1
T1 sequence (Q38C91 whole entry): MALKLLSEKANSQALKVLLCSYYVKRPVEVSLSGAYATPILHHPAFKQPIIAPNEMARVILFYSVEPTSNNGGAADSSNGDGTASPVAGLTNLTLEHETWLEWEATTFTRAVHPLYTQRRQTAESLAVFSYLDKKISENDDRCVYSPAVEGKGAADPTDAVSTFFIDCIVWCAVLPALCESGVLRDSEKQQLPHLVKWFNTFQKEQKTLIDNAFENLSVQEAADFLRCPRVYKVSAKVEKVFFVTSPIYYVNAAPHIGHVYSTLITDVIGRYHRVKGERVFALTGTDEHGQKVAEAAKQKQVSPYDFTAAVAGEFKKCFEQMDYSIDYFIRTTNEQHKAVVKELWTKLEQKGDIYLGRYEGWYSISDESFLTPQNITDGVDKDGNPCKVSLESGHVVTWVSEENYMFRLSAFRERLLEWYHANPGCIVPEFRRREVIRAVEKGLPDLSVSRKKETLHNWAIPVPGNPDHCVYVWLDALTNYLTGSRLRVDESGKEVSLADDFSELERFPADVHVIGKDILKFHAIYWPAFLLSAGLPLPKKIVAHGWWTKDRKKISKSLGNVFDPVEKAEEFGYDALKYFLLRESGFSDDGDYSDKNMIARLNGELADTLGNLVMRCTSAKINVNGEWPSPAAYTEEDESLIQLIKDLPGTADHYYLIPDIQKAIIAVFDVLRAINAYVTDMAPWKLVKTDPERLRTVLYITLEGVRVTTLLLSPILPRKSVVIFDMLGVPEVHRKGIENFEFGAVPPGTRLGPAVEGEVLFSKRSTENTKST

[3] = biological target: T1, Methionyl-tRNA synthetase, putative; type: functional, Trypanosoma brucei brucei strain 927/4 GUTat10.1; remark: listed apart in the source
[4] = biological target: Aryl hydrocarbon receptor (Homo sapiens, UniProt P35869); conditions: Potency;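 note: confirmatory quantitative high-throughput screen measuring activation of the AhR signaling pathway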
Aryl hydrocarbon receptor, sequence (P35869 whole entry): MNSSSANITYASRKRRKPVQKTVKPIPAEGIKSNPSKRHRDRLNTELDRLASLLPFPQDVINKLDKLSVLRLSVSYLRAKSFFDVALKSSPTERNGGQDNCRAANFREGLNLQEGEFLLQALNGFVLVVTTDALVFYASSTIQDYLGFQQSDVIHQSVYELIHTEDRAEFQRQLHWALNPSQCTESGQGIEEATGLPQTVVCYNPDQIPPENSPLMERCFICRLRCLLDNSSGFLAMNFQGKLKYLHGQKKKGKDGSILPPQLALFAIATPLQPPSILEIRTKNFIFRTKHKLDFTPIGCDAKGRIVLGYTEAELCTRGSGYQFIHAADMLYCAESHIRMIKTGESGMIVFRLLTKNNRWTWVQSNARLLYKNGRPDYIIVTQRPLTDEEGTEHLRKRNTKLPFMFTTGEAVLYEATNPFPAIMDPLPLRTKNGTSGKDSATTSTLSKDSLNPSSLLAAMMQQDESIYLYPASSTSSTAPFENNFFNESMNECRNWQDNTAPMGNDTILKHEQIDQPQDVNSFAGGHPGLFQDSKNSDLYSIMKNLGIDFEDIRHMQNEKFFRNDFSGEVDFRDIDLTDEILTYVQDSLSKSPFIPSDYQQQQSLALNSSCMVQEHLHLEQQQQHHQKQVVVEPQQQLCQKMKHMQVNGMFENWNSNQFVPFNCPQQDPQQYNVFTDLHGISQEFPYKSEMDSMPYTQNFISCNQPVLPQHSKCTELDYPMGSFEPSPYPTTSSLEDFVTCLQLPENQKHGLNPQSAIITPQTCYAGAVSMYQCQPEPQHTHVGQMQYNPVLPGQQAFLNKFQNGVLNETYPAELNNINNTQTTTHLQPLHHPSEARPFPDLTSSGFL

[5] = biological target: T2, Calpain-2 catalytic subunit (Sus scrofa, UniProt P43367); experiment: m-calpain protease blockers, concentration series – biochemical, fluorogenic peptide substrate, dose response (AID 1420); type: functional
T2 sequence (P43367 whole entry): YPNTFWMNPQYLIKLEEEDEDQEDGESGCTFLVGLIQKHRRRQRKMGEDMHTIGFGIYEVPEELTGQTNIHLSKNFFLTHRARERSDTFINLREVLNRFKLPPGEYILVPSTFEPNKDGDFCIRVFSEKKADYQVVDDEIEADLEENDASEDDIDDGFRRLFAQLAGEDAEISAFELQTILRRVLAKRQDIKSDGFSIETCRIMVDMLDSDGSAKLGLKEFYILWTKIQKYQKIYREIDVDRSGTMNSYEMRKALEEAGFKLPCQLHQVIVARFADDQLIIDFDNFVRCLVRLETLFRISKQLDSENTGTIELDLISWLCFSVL

[6] = biological target: T3, Low molecular weight phosphotyrosine protein phosphatase (Homo sapiens, UniProt P24666); type: functional; conditions: read-out: IC50_Mean
T3 sequence (P24666 whole entry): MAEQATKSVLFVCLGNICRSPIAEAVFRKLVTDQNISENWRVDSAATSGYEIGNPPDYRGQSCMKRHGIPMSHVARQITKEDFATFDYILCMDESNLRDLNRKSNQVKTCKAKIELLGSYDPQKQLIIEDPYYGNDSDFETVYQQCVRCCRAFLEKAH

[7] = biological target: T3, Low molecular weight phosphotyrosine protein phosphatase; type: functional; conditions: read-out: IC50_Mean; remark: listed apart in the source
[8] = biological target: Potassium voltage-gated channel subfamily KQT member 2 (Rattus norvegicus, UniProt O88943); experiment: blockers of KCNQ2 channel current – cell-based, automated electrophysiology, set II, rat KCNQ2, dose response (AID 588637); type: functional
Potassium voltage-gated channel subfamily KQT member 2, sequence (O88943 whole entry): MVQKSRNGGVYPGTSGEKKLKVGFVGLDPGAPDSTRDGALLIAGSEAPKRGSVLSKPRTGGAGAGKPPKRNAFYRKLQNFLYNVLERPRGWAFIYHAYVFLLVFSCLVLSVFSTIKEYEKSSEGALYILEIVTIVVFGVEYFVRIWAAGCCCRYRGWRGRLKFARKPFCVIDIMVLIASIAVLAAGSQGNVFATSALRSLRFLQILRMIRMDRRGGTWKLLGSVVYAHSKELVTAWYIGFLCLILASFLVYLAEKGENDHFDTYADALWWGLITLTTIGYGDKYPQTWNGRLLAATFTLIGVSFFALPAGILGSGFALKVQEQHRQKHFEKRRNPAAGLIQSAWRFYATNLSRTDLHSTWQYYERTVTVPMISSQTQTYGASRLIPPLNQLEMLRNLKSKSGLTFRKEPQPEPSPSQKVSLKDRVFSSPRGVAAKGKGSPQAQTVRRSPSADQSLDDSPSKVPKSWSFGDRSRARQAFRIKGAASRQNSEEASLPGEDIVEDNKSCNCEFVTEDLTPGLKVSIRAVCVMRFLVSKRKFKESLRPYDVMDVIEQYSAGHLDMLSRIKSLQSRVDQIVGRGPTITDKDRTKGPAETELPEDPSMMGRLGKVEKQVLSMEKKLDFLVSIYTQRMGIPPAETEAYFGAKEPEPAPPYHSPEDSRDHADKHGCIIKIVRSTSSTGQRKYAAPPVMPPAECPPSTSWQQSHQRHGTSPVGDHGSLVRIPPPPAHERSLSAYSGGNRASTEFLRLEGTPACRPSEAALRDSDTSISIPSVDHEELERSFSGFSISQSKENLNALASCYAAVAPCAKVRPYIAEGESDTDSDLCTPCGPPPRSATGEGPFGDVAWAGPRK

[9] = biological target: Tyrosine-protein phosphatase non-receptor type 5 (Homo sapiens, UniProt P54829); experiment: PTPN5 enzyme inhibition – biochemical, fluorescence intensity, uHTS hits, confirmation (AID 602372); type: functional; conditions: read-out: IC50_Mean
Tyrosine-protein phosphatase non-receptor type 5, sequence (P54829 whole entry): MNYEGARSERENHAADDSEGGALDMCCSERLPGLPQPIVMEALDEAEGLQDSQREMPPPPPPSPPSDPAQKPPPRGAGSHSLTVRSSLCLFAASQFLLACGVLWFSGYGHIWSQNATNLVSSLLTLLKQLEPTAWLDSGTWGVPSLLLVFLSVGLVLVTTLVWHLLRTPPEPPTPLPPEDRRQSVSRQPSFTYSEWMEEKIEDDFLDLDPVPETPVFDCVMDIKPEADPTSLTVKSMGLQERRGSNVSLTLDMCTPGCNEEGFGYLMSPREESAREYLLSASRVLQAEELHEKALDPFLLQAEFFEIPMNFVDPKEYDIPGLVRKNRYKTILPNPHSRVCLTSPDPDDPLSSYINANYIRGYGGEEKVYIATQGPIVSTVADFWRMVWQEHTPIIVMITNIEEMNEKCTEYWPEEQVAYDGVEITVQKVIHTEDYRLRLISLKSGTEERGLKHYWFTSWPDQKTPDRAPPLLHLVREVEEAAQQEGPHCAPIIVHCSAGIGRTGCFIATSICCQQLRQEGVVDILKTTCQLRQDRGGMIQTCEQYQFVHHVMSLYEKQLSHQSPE

[10] = biological target: Tyrosine-protein phosphatase non-receptor type 11 (Homo sapiens, UniProt Q06124); experiment: PTPN11 enzyme inhibitors – biochemical, selectivity assay for STEP inhibitor project, dose response (AID 602367); type: functional; conditions: read-out: IC50_Mean
Tyrosine-protein phosphatase non-receptor type 11, sequence (Q06124 whole entry): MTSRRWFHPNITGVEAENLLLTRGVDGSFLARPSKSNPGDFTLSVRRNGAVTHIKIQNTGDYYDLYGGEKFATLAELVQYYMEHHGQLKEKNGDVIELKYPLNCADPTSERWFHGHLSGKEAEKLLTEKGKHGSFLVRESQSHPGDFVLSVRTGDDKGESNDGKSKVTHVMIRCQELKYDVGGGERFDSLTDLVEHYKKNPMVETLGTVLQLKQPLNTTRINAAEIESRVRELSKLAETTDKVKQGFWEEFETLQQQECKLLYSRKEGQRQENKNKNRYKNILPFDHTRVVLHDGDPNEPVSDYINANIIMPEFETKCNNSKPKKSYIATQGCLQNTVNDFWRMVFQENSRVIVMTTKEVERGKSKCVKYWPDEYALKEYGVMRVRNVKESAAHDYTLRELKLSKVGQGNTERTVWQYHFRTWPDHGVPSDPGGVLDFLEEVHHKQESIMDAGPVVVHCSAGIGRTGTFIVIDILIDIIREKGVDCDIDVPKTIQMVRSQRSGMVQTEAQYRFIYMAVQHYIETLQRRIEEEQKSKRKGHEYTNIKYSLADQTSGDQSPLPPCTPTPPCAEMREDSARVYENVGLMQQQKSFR

[11] = biological target: Dual specificity protein phosphatase 3 (Homo sapiens, UniProt P51452); experiment: VHR phosphatase inhibition, dose response, selectivity assay for STEP inhibitor project, biochemical (AID 602374); type: functional; conditions: read-out: IC50_Mean
Dual specificity protein phosphatase 3, sequence (P51452 whole entry): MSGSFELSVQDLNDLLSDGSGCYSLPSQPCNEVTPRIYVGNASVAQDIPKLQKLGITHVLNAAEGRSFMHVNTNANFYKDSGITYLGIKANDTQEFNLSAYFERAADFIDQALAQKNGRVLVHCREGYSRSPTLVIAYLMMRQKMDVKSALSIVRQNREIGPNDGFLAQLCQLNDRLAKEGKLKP

[12] = bead-based luminescence quenchers, dual-tagged ARNT – biochemical, AlphaScreen, cherry-pick, artefact control for ARNT-TACC3 interaction inhibitor project, dose response (AID 651705); type: functional;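 note: AlphaScreen bead proximity signal that flags compounds interfering with the detection technology; potency reflects signal decrease which marks the compound as an assay artifact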
Interleukin-8 [13] = biological target: T4, Interleukin-8 (Homo sapiens, UniProt P10145); experiment: Dose Response confirmation of uHTS small molecule hits for cystic fibrosis induced NFkb Inhibitors in a TNFa-induced IL8 counterscreen.; type: functional; conditions: read-out: IC50_Mean
T4 sequence (P10145 whole entry): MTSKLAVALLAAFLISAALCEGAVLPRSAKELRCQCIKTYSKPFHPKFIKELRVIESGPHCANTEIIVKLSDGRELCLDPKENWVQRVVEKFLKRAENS

Interleukin-8 [14] = biological target: T4, Interleukin-8; experiment: Dose Response confirmation of uHTS small molecule hits for cystic fibrosis induced NFkb Inhibitors in a PAF-induced IL8 counterscreen.; type: functional; conditions: read-out: IC50_Mean

## COc1ccccc1NC(=O)c1ccc(-n2ccnc2)c([N+](=O)[O-])c1
[1]
  IC50: 83.3 µM (inactive)
[2]
  IC50: 55.4 µM (inactive)
[3]
  IC50: 29 µM (inactive)

## Oc1ccc(O)c2c(O)cccc12
[4]
  AC50: 39.8 µM (inconclusive)

## c1ccc(-c2cc(N3CCCCC3)c3ccccc3n2)cc1
[5]
  IC50: 3.92 µM (not active)
[6]
  IC50: 14 µM (active)
[7]
  IC50: 9.25 µM (active)

## CCOC(=O)N1CCC(N(CCOC)C(=O)Nc2ccc(C)c(C)c2)CC1
[8]
  IC50: 0.477 µM (active)

## Cc1ccc(Cn2cc(C=O)c(-c3ccc(C)cc3)n2)cc1
[9]
  IC50: > 80 µM (inactive)
[10]
  IC50: > 80 µM (inactive)
[11]
  IC50: 73.9 µM (inactive)

## O=S(=O)(c1ccc(Br)cc1)c1nc(-c2ccco2)oc1NCCCn1ccnc1
[12]
  AC50: 108 µM (active)

## O=S1(=O)CC=C(CSC(=S)NC2CCS(=O)(=O)C2)C1 (centres undefined)
Interleukin-8 [13]
  IC50: 3.68 µM (active)
Interleukin-8 [14]
  IC50: 2.06 µM (active)
